Experiment in all cases: NCI anticancer screen, dose series, 48 h
Experiment [1] concerns SK-MEL-28.
Experiment [2] relates to UACC-257.
Experiment [3] concerns LOX IMVI.
For experiment [4], the system named is SW-620.
For experiment [5], the system named is ACHN.
For experiment [6], the system named is MDA-MB-231.
For experiment [7], the system named is SK-MEL-5.
Experiment [8] deals with SK-OV-3.
Experiment [9] concerns SF-295.
Experiment [10] has as its system BT-549.
Experiment [11] has as its system HT-29.
Experiment [12] deals with IGROV-1.
In experiment [13] the test system is NCI-H23.
In experiment [14] the test system is COLO 205.
The test system of experiment [15] is A498.
Experiment [16] relates to SK-MEL-2.
Experiment [17] has as its system KM12.
In experiment [18] the test system is PC-3.
Experiment [19] has as its system SF-268.

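Step 1: Grow cells in 96-well plates. Step 2: Expose to compound for 48 hours at 5 concentrations. Step 3: Interpolate endpoints linearly; if unreached, use highest concentration. GI50 is the concentration that inhibits growth by half.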 The source made the active and inactive calls. Rule as the data show it: active = GI50 up to about 1.1 µM and inactive = higher. Where only a bound is given, the exact number is not on record here.

The record followed here is ChEMBL document CHEMBL1201862, “PubChem BioAssay data set” (2004).

`[N-]=[N+]=NC1C(O)C(CO)OC1n1ccc(N)nc1=O` (stereo not given): the GI50 in experiment [1] is 416 µM (inactive); in experiment [2], 369 µM (inactive); in experiment [3] it was 232 µM (inactive); in experiment [4], 159 µM (inactive); in [5], 33.9 µM (inactive); in experiment [6] it was 195 µM (inactive). Besides, the GI50 in experiment [7] is > 625 µM (inactive); in [8], > 625 µM (inactive); in [9], 530 µM (inactive); in experiment [10], 161 µM (inactive); in [11] it was 204 µM (inactive); in experiment [12] it was 310 µM (inactive). Also, the GI50 was 29.9 µM (inactive) in [13]; 160 µM (inactive) in experiment [14]; 91.8 µM (inactive) in experiment [15]; 76.7 µM (inactive) in experiment [16]; 187 µM (inactive) in [17]; 182 µM (inactive) in [18]. The GI50 in [19] is 191 µM (inactive).

`COC(=O)C1=CON2C3CC4CC(C3)CC(C4)C12C` (stereo not given): the GI50 in experiment [1], in experiment [2], in experiment [3], in experiment [4], in experiment [5] and in [6] was > 100 µM (inactive) in each case. Besides, the GI50 in [7], in experiment [8], in experiment [9], in experiment [10], in experiment [11] and in experiment [12] was > 100 µM (inactive) in each case. The GI50 in experiment [13], in experiment [14], in experiment [15], in [16], in [17] and in experiment [18] was > 100 µM (inactive) throughout. Also, the GI50 in [19] was > 100 µM (inactive).

For the compound `O=C(NC12CC3CC(CC(C3)C1)C2)n1cnc2c(Cl)ncnc21`, the GI50 in experiment [1] was 42.9 µM (inactive); in [2], 35.8 µM (inactive); in experiment [3], 18.7 µM (inactive); in experiment [4], 37 µM (inactive); in experiment [5] it was 21.2 µM (inactive); in [6], 42.8 µM (inactive). Further, the GI50 in [7] was 24.2 µM (inactive); in experiment [8], 34.3 µM (inactive); in experiment [9] it was 59.8 µM (inactive); in experiment [10], 31.3 µM (inactive); in [11], 27 µM (inactive); in experiment [12], 18.5 µM (inactive). Moreover, the GI50 is 22.7 µM (inactive) in experiment [13]; 17 µM (inactive) in experiment [14]; > 100 µM (inactive) in [15]; 28.3 µM (inactive) in experiment [16]; > 100 µM (inactive) in experiment [17]; 26.4 µM (inactive) in [18]. The GI50 in [19] was 22.6 µM (inactive).

Turning to `CN(C)CCCNc1c2c(nc3ccc(Cl)cc13)CCCC2`, the GI50 is 18.3 µM (inactive) in experiment [1]; 16.3 µM (inactive) in experiment [2]; 11.9 µM (inactive) in experiment [3]; 9.75 µM (inactive) in [4]; 16.1 µM (inactive) in [5]; 13.6 µM (inactive) in [6]. The GI50 was 14.4 µM (inactive) in [7]; 23 µM (inactive) in [8]; 14.5 µM (inactive) in experiment [9]; 18.1 µM (inactive) in experiment [10]; 5.47 µM (inactive) in experiment [11]; 12.7 µM (inactive) in experiment [12]. Further, the GI50 in [13] is 15.8 µM (inactive); in [14], 8.51 µM (inactive); in experiment [15] it was 18 µM (inactive); in experiment [16], 19.3 µM (inactive); in experiment [17] it was 13.6 µM (inactive); in experiment [18], 13.7 µM (inactive). Moreover, the GI50 in experiment [19] is 13.2 µM (inactive).

Regarding `CCOC(=O)c1c(-c2ccccc2)oc(=O)c(Cc2cccc3cccnc23)c1-c1ccccc1`, the GI50 in experiment [1], in experiment [2], in experiment [3], in experiment [4], in [5] and in experiment [6] was > 10 µM (inactive) each time. The GI50 in experiment [7], in experiment [8], in experiment [9], in experiment [10], in [11] and in experiment [12] was > 10 µM (inactive) throughout. Also, the GI50 in experiment [13] was > 10 µM (inactive); in [14], > 10 µM (inactive); in experiment [15], > 10 µM (inactive); in experiment [16], > 10 µM (inactive); in experiment [17], > 10 µM (inactive); in [18], 9.55 µM (inactive). For the same compound, the GI50 in [19] is > 10 µM (inactive).

`C[C@H]1[C@H]2[C@H](C[C@@]3(C)C4=CC[C@H]5C(C)(C)[C@@H](OC6OCC(O)C(O)C6O)CC[C@@]56C[C@@]46CC[C@]23C)O[C@@]2(O)[C@@H]1OC(C)(C)[C@H]2O` (stereo not given in full): the GI50 was 2.48 µM (inactive) in experiment [1]; 1.6 µM (inactive) in [2]; 1.48 µM (inactive) in experiment [3]; 1.13 µM (inactive) in [4]; 2.12 µM (inactive) in [5]; 1.81 µM (inactive) in experiment [6]. Besides, the GI50 in experiment [7] is 1.66 µM (inactive); in experiment [8] it was 1.74 µM (inactive); in experiment [9], 0.429 µM (active); in experiment [10] it was 1.86 µM (inactive); in experiment [11], 2.61 µM (inactive); in experiment [12] it was 0.918 µM (active). The GI50 in experiment [13] is 1.09 µM (active); in [14] it was 2.67 µM (inactive); in experiment [15], 1.89 µM (inactive); in [16] it was 5.53 µM (inactive); in experiment [17], 1.48 µM (inactive); in experiment [18], 1.07 µM (active). In addition, the GI50 in experiment [19] was 0.914 µM (active).

As to `CC(OP(=O)(O)O)C(N)C(=O)O` (stereo not given), the GI50 in [1], in [2], in [3], in experiment [4], in experiment [5] and in experiment [6] was > 100 µM (inactive) in each case. In addition, the GI50 in experiment [7], in experiment [8], in experiment [9], in experiment [10], in experiment [11] and in [12] was > 100 µM (inactive) in each case. In addition, the GI50 in experiment [13], in experiment [14], in experiment [15], in [16], in experiment [17] and in [18] was > 100 µM (inactive) in each case. For the same compound, the GI50 in experiment [19] was > 100 µM (inactive).

As for `NC1=CN(Cc2ccccc2)C2=N/C(=C\c3ccco3)C(=O)N12`, the GI50 in [1], in experiment [2], in experiment [3], in [4], in experiment [5] and in experiment [6] was > 100 µM (inactive) throughout. Further, the GI50 in experiment [7], in experiment [8], in experiment [9], in experiment [10], in experiment [11] and in [12] was > 100 µM (inactive) each time. Moreover, the GI50 in experiment [13], in [14], in [15], in experiment [16], in experiment [17] and in experiment [18] was > 100 µM (inactive) throughout. Also, the GI50 in experiment [19] is > 100 µM (inactive).

Consider `CC1CNC(c2ccc(CN3CCC(CCCC4CCN(Cc5ccc(C6=NC(C)CN6)cc5)CC4)CC3)cc2)=N1` (stereo not given), for which the GI50 in [1] is > 100 µM (inactive); in experiment [2], 18.8 µM (inactive); in experiment [3], 82.4 µM (inactive); in [4], 30.5 µM (inactive); in [5], > 100 µM (inactive); in [6], 21.2 µM (inactive). The GI50 in experiment [7] is > 100 µM (inactive); in [8] it was 25.5 µM (inactive); in experiment [9], > 100 µM (inactive); in experiment [10], > 100 µM (inactive); in [11], 30.9 µM (inactive); in experiment [12] it was > 100 µM (inactive). The GI50 in [13] was > 100 µM (inactive); in experiment [14], 17.6 µM (inactive); in [15], > 100 µM (inactive); in experiment [16], 21.7 µM (inactive); in experiment [17], 16.9 µM (inactive); in experiment [18], 36.8 µM (inactive). Moreover, the GI50 in experiment [19] is > 100 µM (inactive).

Turning to `COc1ccc2c(c1)/C(=C\c1c(Cl)[nH]c3cc(C)c(OC)cc13)C(=O)N2`, the GI50 in experiment [1] is 10.6 µM (inactive); in experiment [2] it was 2.63 µM (inactive); in experiment [3], 0.753 µM (active); in experiment [4], 1.22 µM (inactive); in experiment [5] it was 1.05 µM (active); in experiment [6], 2.93 µM (inactive). Also, the GI50 is 0.69 µM (active) in experiment [7]; 0.423 µM (active) in experiment [8]; 0.396 µM (active) in experiment [9]; 0.679 µM (active) in [10]; 0.889 µM (active) in [11]; 0.467 µM (active) in experiment [12]. Besides, the GI50 is 0.593 µM (active) in experiment [13]; 1.03 µM (active) in [14]; 0.83 µM (active) in [15]; 0.713 µM (active) in [16]; 0.467 µM (active) in [17]; 0.807 µM (active) in [18]. The GI50 in experiment [19] is 0.986 µM (active).
